Literature values in paper PMC9329312, “Decoding kinase-adverse event associations for small molecule kinase inhibitors” (Nature Communications, 2022).
Like-named read-outs stand apart in the source and are kept apart here.

Details: ref FAERS

## CCOc1cc2ncc(C#N)c(Nc3ccc(OCc4ccccn4)c(Cl)c3)c2cc1NC(=O)/C=C/CN(C)C [neratinib]
  Pyrexia, % of Cases: 1.4%
  Quality of life decreased, % of Cases: 0.075%
  Radiation injury, % of Cases: 0.075%
  Rash erythematous, % of Cases: 0.3%
  Rash macular, % of Cases: 0.075%
  Rash papular, % of Cases: 0.075%
  Rash pruritic, % of Cases: 0.3%
  Rash pustular, % of Cases: 0.225%
  Rash vesicular, % of Cases: 0.075%
  Rash, % of Cases: 5.0%
  Raynaud's phenomenon, % of Cases: 0.075%
  Recall phenomenon, % of Cases: 0.075%
  Rectal haemorrhage, % of Cases: 0.5%
  Recurrent cancer, % of Cases: 0.075%
  Red blood cell count decreased, % of Cases: 0.225%
  Red blood cell sedimentation rate increased, % of Cases: 0.075%
  Reflux laryngitis, % of Cases: 0.15%
  Refraction disorder, % of Cases: 0.075%
  Renal disorder, % of Cases: 0.45%
  Renal failure, % of Cases: 0.6%
  Renal function test abnormal, % of Cases: 0.15%
  Renal impairment, % of Cases: 0.8%
  Renal mass, % of Cases: 0.075%
  Respiratory arrest, % of Cases: 0.075%
  Respiratory failure, % of Cases: 0.15%
  Restless legs syndrome, % of Cases: 0.075%
  Retching, % of Cases: 0.3%
  Retinal artery occlusion, % of Cases: 0.075%
  Retinal tear, % of Cases: 0.075%
  Rhinorrhoea, % of Cases: 0.75%
  Road traffic accident, % of Cases: 0.075%
  Rubber sensitivity, % of Cases: 0.075%
  Saliva altered, % of Cases: 0.075%
  Salivary gland cancer, % of Cases: 0.15%
  Salpingectomy, % of Cases: 0.075%
  Salpingo-oophorectomy bilateral, % of Cases: 0.075%
  Scab, % of Cases: 0.075%
  Seasonal allergy, % of Cases: 0.075%
  Seizure, % of Cases: 0.225%
  Sensation of foreign body, % of Cases: 0.15%
  Seroma, % of Cases: 0.075%
  Sinus disorder, % of Cases: 0.075%
  Sinus headache, % of Cases: 0.075%
  Sinus tachycardia, % of Cases: 0.075%
  Sinusitis, % of Cases: 0.15%
  Sjogren's syndrome, % of Cases: 0.075%
  Skin atrophy, % of Cases: 0.075%
  Skin burning sensation, % of Cases: 0.075%
  Skin discolouration, % of Cases: 0.225%
  Skin disorder, % of Cases: 0.075%
  Skin erosion, % of Cases: 0.075%
  Skin exfoliation, % of Cases: 0.8%
  Skin fissures, % of Cases: 0.9%
  Skin haemorrhage, % of Cases: 0.075%
  Skin irritation, % of Cases: 0.075%
  Skin odour abnormal, % of Cases: 0.075%
  Skin reaction, % of Cases: 0.075%
  Skin ulcer, % of Cases: 0.075%
  Sleep disorder, % of Cases: 0.15%
  Slow speech, % of Cases: 0.075%
  Sluggishness, % of Cases: 0.075%
  Small intestine adenocarcinoma, % of Cases: 0.075%
  Sneezing, % of Cases: 0.225%
  Snoring, % of Cases: 0.075%
  Somnolence, % of Cases: 1.5%
  Spinal pain, % of Cases: 0.075%
  Sputum retention, % of Cases: 0.075%
  Staphylococcal infection, % of Cases: 0.075%
  Stomatitis, % of Cases: 2.0%
  Stress fracture, % of Cases: 0.075%
  Stress, % of Cases: 0.3%
  Subclavian vein thrombosis, % of Cases: 0.075%
  Sunburn, % of Cases: 0.075%
  Surgery, % of Cases: 0.6%
  Swelling face, % of Cases: 0.225%
  Swelling, % of Cases: 0.15%
  Swollen tongue, % of Cases: 0.15%
  Syncope, % of Cases: 0.15%
  Tachycardia, % of Cases: 0.225%
  Taste disorder, % of Cases: 1.2%
  Temporomandibular joint syndrome, % of Cases: 0.075%
  Tenderness, % of Cases: 0.075%
  Tension headache, % of Cases: 0.075%
  Therapeutic product ineffective for unapproved indication, % of Cases: 0.075%
  Therapy cessation, % of Cases: 0.375%
  Therapy change, % of Cases: 0.225%
  Therapy interrupted, % of Cases: 0.15%
  Thirst, % of Cases: 0.375%
  Throat irritation, % of Cases: 0.075%
  Throat tightness, % of Cases: 0.075%
  Thrombocytopenia, % of Cases: 0.075%
  Thrombosis, % of Cases: 0.225%
  Thyroid cancer, % of Cases: 0.075%
  Thyroid mass, % of Cases: 0.075%
  Tongue discolouration, % of Cases: 0.075%
  Tongue discomfort, % of Cases: 0.075%
  Tongue erythema, % of Cases: 0.15%
  Tooth extraction, % of Cases: 0.075%
  Tooth fracture, % of Cases: 0.075%
  Tooth injury, % of Cases: 0.075%
  Toothache, % of Cases: 0.15%
  Toxicity to various agents, % of Cases: 0.075%
  Tracheal disorder, % of Cases: 0.075%
  Transaminases increased, % of Cases: 0.075%
  Transient ischaemic attack, % of Cases: 0.075%
  Transitional cell carcinoma metastatic, % of Cases: 0.075%
  Treatment noncompliance, % of Cases: 0.075%
  Tremor, % of Cases: 0.375%
  Trichorrhexis, % of Cases: 0.075%
  Tumour flare, % of Cases: 0.075%
  Tumour marker increased, % of Cases: 0.075%
  Tumour pain, % of Cases: 0.075%
  Tumour ulceration, % of Cases: 0.075%
  Underdose, % of Cases: 2.6%
  Upper limb fracture, % of Cases: 0.075%
  Upper respiratory tract infection, % of Cases: 0.375%
  Upper-airway cough syndrome, % of Cases: 0.075%
  Urinary retention, % of Cases: 0.075%
  Urinary tract discomfort, % of Cases: 0.075%
  Urinary tract infection, % of Cases: 2.1%
  Urine analysis abnormal, % of Cases: 0.075%
  Urine odour abnormal, % of Cases: 0.075%
  Urticaria, % of Cases: 0.375%
  Uterine cancer, % of Cases: 0.075%
  Uterine leiomyoma, % of Cases: 0.075%
  Vaginal discharge, % of Cases: 0.075%
  Vaginal haemorrhage, % of Cases: 0.225%
  Venous pressure jugular increased, % of Cases: 0.075%
  Vertigo positional, % of Cases: 0.075%
  Vertigo, % of Cases: 0.075%
  Viral infection, % of Cases: 0.15%
  Vision blurred, % of Cases: 0.375%
  Visual impairment, % of Cases: 0.225%
  Vitamin D decreased, % of Cases: 0.075%
  Vitiligo, % of Cases: 0.075%
  Vitreous floaters, % of Cases: 0.075%
  Volume blood decreased, % of Cases: 0.075%
  Vomiting projectile, % of Cases: 0.075%
  Vomiting, % of Cases: 13.8%
  Vulvovaginal burning sensation, % of Cases: 0.075%
  Vulvovaginal dryness, % of Cases: 0.075%
  Vulvovaginal pain, % of Cases: 0.075%
  Vulvovaginal pruritus, % of Cases: 0.15%
  Weight decreased, % of Cases: 4.9%
  Weight fluctuation, % of Cases: 0.075%
  Weight increased, % of Cases: 0.3%
  White blood cell count decreased, % of Cases: 0.7%
  White blood cell count increased, % of Cases: 0.15%
  Wound haemorrhage, % of Cases: 0.075%
  Wound, % of Cases: 0.075%
  Wrist fracture, % of Cases: 0.075%
  Wrong technique in product usage process, % of Cases: 0.075%
  Xeroderma, % of Cases: 0.075%
Listed as Neratinib
  Abdominal discomfort, % of Cases: 4.80%
  Abdominal pain upper, % of Cases: 6.00%
  Abdominal pain, % of Cases: 6.20%
  Constipation, % of Cases: 15.50%
  Death, % of Cases: 9.60%
  Decreased appetite, % of Cases: 11.90%
  Dehydration, % of Cases: 6.60%
  Diarrhoea, % of Cases: 61.80%
  Dizziness, % of Cases: 4.60%
  Dyspepsia, % of Cases: 4.40%
  Fatigue, % of Cases: 25.20%
  Headache, % of Cases: 5.40%
  Hospitalisation, % of Cases: 5.30%
  Muscle spasms, % of Cases: 4.20%
  Nausea, % of Cases: 29.70%
  Off label use, % of Cases: 11.60%
  Product dose omission issue, % of Cases: 7.80%
  Rash, % of Cases: 5.00%
  Vomiting, % of Cases: 13.80%
  Weight decreased, % of Cases: 4.90%
